Laboratory results reported in PubChem BioAssay (NCI).
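The concentration for 50% growth inhibition is given as GI50. TGI marks complete inhibition of growth.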

What was measured:
Experiment in all cases: NCI-60 cell line screen, 384-well format
[1] = system: A498 renal
[2] = system: CAKI-1 renal
[3] = system: U251 glioblastoma
[4] = system: MALME-3M melanoma
[5] = system: SK-MEL-5 melanoma
[6] = system: SK-MEL-28 melanoma
[7] = system: HL-60(TB) leukemia
[8] = system: MOLT-4 leukemia
[9] = system: MDA-MB-435 melanoma
[10] = system: PC-3 prostate
[11] = system: CCRF-CEM leukemia
[12] = system: ACHN renal
[13] = system: SR leukemia
[14] = system: MCF7 breast
[15] = system: HOP-92 NSCLC
[16] = system: KM12 colon
[17] = system: RXF 393 renal
[18] = system: IGROV1 ovarian
[19] = system: SF-268 CNS
[20] = system: TK-10 renal
[21] = system: UO-31 renal
[22] = system: NCI-H23 lung
[23] = system: SF-295 CNS
[24] = system: 786-0 renal
[25] = system: BT-549 breast
[26] = system: NCI-H460 NSCLC
[27] = system: M14 melanoma
[28] = system: SNB-19 CNS
[29] = system: HCT-15 colon

COc1c/c(=C2/C=c3ccccc3=N2)[nH]/c1=C/c1[nH]c(C)cc1C
GI50 [1]: 81 nM | TGI [1]: 1070 nM | GI50 [2]: 45.2 nM | TGI [2]: 269 nM | GI50 [3]: 36.5 nM | TGI [3]: 132 nM | GI50 [4]: 27.2 nM | TGI [4]: 64.3 nM | GI50 [5]: 19.4 nM | TGI [5]: 37.3 nM | GI50 [6]: 24.4 nM | TGI [6]: 61.8 nM | GI50 [7]: 17.3 nM | TGI [7]: 31.6 nM | GI50 [8]: 14.9 nM | TGI [8]: 28.7 nM | GI50 [9]: 23.6 nM | TGI [9]: 53.2 nM | GI50 [10]: 17.8 nM | TGI [10]: 76.8 nM | GI50 [11]: 16.4 nM | TGI [11]: 32.8 nM | GI50 [12]: 32.5 nM | TGI [12]: 123 nM | GI50 [13]: 20.7 nM | TGI [13]: 35.3 nM | GI50 [14]: 32 nM | TGI [14]: 106 nM | GI50 [15]: 23.9 nM | TGI [15]: 67.1 nM | GI50 [16]: 27.8 nM | TGI [16]: 99.8 nM | GI50 [17]: 14.2 nM | TGI [17]: 51.6 nM | GI50 [18]: 30.9 nM | TGI [18]: 99.1 nM | GI50 [19]: 19.3 nM | TGI [19]: 88.6 nM | GI50 [20]: 25.2 nM | TGI [20]: 65.5 nM | GI50 [21]: 18.8 nM | TGI [21]: 35.3 nM | GI50 [22]: 24.7 nM | TGI [22]: 63 nM | GI50 [23]: 35.1 nM | TGI [23]: 155 nM | GI50 [24]: 13.8 nM | TGI [24]: 33.8 nM | GI50 [25]: 15.6 nM | TGI [25]: 58.2 nM | GI50 [26]: 19.5 nM | TGI [26]: 41 nM | GI50 [27]: 22.3 nM | TGI [27]: 52.7 nM | GI50 [28]: 54.5 nM | TGI [28]: 1290 nM | GI50 [29]: 17.9 nM | TGI [29]: 35.2 nM
